Results reported in patent publication US11051515B2, “3-acyl-benzamides and their use as herbicides” (Bayer Aktiengesellschaft, priority 2017, dated 2021).

Legend:
ALOMY [1] = experiment: Pre-emergence action against ALOMY; format: in vivo, Alopecurus myosuroides; details: Alopecurus myosuroides, 504 h; dosage 320 g/ha; pre-emergence; scored visually after 3 weeks vs untreated controls; 100% = plants have died, 0% = like control plants; read-out: Pre-emergence action against ALOMY (herbicidal activity in percent)
Procedure, shortened: (§1)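 Seeds sown in sandy loam in wood-fiber pots and covered with soil. Greenhouse growth; visual damage scored after 3 weeks versus untreated controls (100% = dead, 0% = like control).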

AVEFA [2] = experiment: Pre-emergence action against AVEFA; format: in vivo, Avena fatua; details: Avena fatua, 504 h, dosage 320 g/ha, scored visually after 3 weeks vs untreated controls, read-out: Pre-emergence action against AVEFA (herbicidal activity)
Procedure, shortened: as §1

ECHCG [3] = experiment: Pre-emergence action against ECHCG; format: in vivo, Echinochloa crus-galli; details: Echinochloa crus-galli, 504 h; pre-emergence, dosage 320 g/ha, scored visually after 3 weeks vs untreated controls; read-out: Pre-emergence action against ECHCG (herbicidal activity)
Procedure, shortened: as §1

LOLMU [4] = experiment: Pre-emergence action against LOLMU; format: in vivo, Lolium multiflorum; details: Lolium multiflorum, 504 h, dosage 320 g/ha, scored visually after 3 weeks vs untreated controls, read-out: Pre-emergence action against LOLMU (herbicidal activity)
Procedure, shortened: as §1

SETVI [5] = experiment: Pre-emergence action against SETVI; format: in vivo, Setaria viridis; details: Setaria viridis, 504 h; pre-emergence, dosage 320 g/ha, scored visually after 3 weeks vs untreated controls; read-out: SETVI (Table B8, pre-emergence herbicidal activity)
Procedure, shortened: as §1

ABUTH [6] = experiment: Pre-emergence action against ABUTH; format: in vivo, Abutilon theophrasti; details: Abutilon theophrasti, 504 h; pre-emergence, dosage 320 g/ha, scored visually after 3 weeks vs untreated controls; read-out: Pre-emergence action against ABUTH (herbicidal activity)
Procedure, shortened: as §1

AMARE [7] = experiment: Pre-emergence action against AMARE; format: in vivo, Amaranthus retroflexus; details: Amaranthus retroflexus, 504 h; pre-emergence, dosage 320 g/ha, scored visually after 3 weeks vs untreated controls; read-out: Pre-emergence action against AMARE (herbicidal activity)
Procedure, shortened: as §1

MATIN [8] = experiment: Pre-emergence action against MATIN; format: in vivo, Matricaria inodora; details: Tripleurospermum inodorum, 504 h; Dosage 320 g/ha, pre-emergence
Procedure, shortened: as §1

POLCO [9] = experiment: Pre-emergence action against POLCO; format: in vivo, Polygonum convolvulus; details: Fallopia convolvulus, 504 h; Dosage 320 g/ha, pre-emergence
Procedure, shortened: as §1

STEME [10] = experiment: Pre-emergence action against STEME; format: in vivo, Stellaria media; details: Stellaria media, 504 h; Dosage 320 g/ha, pre-emergence
Procedure, shortened: as §1

VIOTR [11] = experiment: Pre-emergence action against VIOTR; format: in vivo, Viola tricolor; details: Viola tricolor, 504 h; Dosage 320 g/ha, pre-emergence
Procedure, shortened: as §1

VERPE [12] = experiment: Pre-emergence action against VERPE; format: in vivo, Veronica persica; details: Veronica persica, 504 h; Dosage 320 g/ha, pre-emergence
Procedure, shortened: as §1

ALOMY [13] = experiment: Post-emergence action against ALOMY; format: in vivo, Alopecurus myosuroides; details: Alopecurus myosuroides, 504 h; Dosage 80 g/ha, post-emergence
Procedure, shortened: (§2)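 Post-emergence foliar spray on greenhouse plants at the one-leaf stage, using wettable-powder or emulsion-concentrate formulations in water (600 to […], plus 0.2% wetting agent). Damage scored by eye roughly 3 weeks later against untreated plants: 0% = like control, 100% = dead.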

AVEFA [14] = experiment: Post-emergence action against AVEFA; format: in vivo, Avena fatua; details: Avena fatua, 504 h; post-emergence, dosage 80 g/ha, visual assessment about 3 weeks after treatment vs untreated controls; read-out: Post-emergence action against AVEFA (herbicidal action in percent)
Procedure, shortened: as §2

ECHCG [15] = experiment: Post-emergence action against ECHCG; format: in vivo, Echinochloa crus-galli; details: Echinochloa crus-galli, 504 h; post-emergence, dosage 80 g/ha, visual assessment about 3 weeks after treatment vs untreated controls; read-out: Post-emergence action against ECHCG (herbicidal action in percent)
Procedure, shortened: as §2

LOLMU [16] = experiment: Post-emergence action against LOLMU; format: in vivo, Lolium multiflorum; details: Lolium multiflorum, 504 h, dosage 80 g/ha, visual assessment about 3 weeks after treatment vs untreated controls, read-out: Post-emergence action against LOLMU (herbicidal action in percent)
Procedure: Seeds of monocotyledonous and dicotyledonous weed and crop plants are laid out in sandy loam soil in wood-fiber pots, covered with soil and cultivated in a greenhouse under good growth conditions. 2 to 3 weeks after sowing, the test plants are treated at the one-leaf stage. The compounds of the invention, formulated in the form of wettable powders (WP) or as emulsion concentrates (EC), are then sprayed onto the green parts of the plants in the form of an aqueous suspension or emulsion at a water application rate equating to […], with addition of 0.2% wetting agent. After the test plants have been left to stand in the greenhouse under optimal growth conditions for about 3 weeks, the action of the preparations is assessed visually in comparison to untreated controls (herbicidal action in percent (%): 100% activity=the plants have died, 0% activity=like control plants). […] At the same time, inventive compounds leave Gramineae crops such as barley, wheat, rye, millet/Sorghum, corn or rice virtually undamaged when applied post-emergence, even at high active ingredient dosages. In addition, some substances are also harmless to dicotyledonous crops such as soya, cotton, oilseed rape, sugar beet or potatoes. Some of the compounds according to the invention have high selectivity and are therefore suitable for controlling unwanted vegetation in agricultural crops by the post-emergence method. The data of Tables B18 to B34 below illustrate, in an exemplary manner, the […] herbicidal action of the compounds according to the invention, the herbicidal activity being stated in percent.

SETVI [17] = experiment: Post-emergence action against SETVI; format: in vivo, Setaria viridis; details: Setaria viridis, 504 h; post-emergence, dosage 80 g/ha, visual assessment about 3 weeks after treatment vs untreated controls; read-out: Post-emergence action against SETVI (herbicidal action in percent)
Procedure, shortened: as §2

ABUTH [18] = experiment: Post-emergence action against ABUTH; format: in vivo, Abutilon theophrasti; details: Abutilon theophrasti, 504 h; post-emergence, dosage 80 g/ha, visual assessment about 3 weeks after treatment vs untreated controls; read-out: Post-emergence action against ABUTH (herbicidal action in percent)
Procedure, shortened: as §2

AMARE [19] = experiment: Post-emergence action against AMARE; format: in vivo, Amaranthus retroflexus; details: Amaranthus retroflexus, 504 h; post-emergence, dosage 80 g/ha, visual assessment about 3 weeks after treatment vs untreated controls; read-out: Post-emergence action against AMARE (herbicidal action in percent)
Procedure, shortened: as §2

MATIN [20] = experiment: Post-emergence action against MATIN; format: in vivo, Matricaria inodora; details: Tripleurospermum inodorum, 504 h; post-emergence, dosage 80 g/ha, visual assessment about 3 weeks after treatment vs untreated controls; read-out: Post-emergence action against MATIN (herbicidal action in percent)
Procedure, shortened: as §2

PHBPU [21] = experiment: Post-emergence action against PHBPU; format: in vivo, Pharbitis purpurea; details: Ipomoea purpurea, 504 h; post-emergence, dosage 80 g/ha
Procedure, shortened: as §2

STEME [22] = experiment: Post-emergence action against STEME; format: in vivo, Stellaria media; details: Stellaria media, 504 h; post-emergence, dosage 80 g/ha
Procedure, shortened: as §2

VIOTR [23] = experiment: Post-emergence action against VIOTR; format: in vivo, Viola tricolor; details: Viola tricolor, 504 h; post-emergence, dosage 80 g/ha
Procedure, shortened: as §2

CYPES [24] = experiment: Pre-emergence action against CYPES; format: in vivo, Cyperus esculentus; details: Cyperus esculentus, 504 h; pre-emergence, dosage 320 g/ha, scored visually after 3 weeks vs untreated controls; read-out: Pre-emergence action against CYPES (herbicidal activity)
Procedure, shortened: as §1

PHBPU [25] = experiment: Pre-emergence action against PHBPU; format: in vivo, Pharbitis purpurea; details: Ipomoea purpurea, 504 h; Dosage 320 g/ha, pre-emergence
Procedure, shortened: as §1

CYPES [26] = experiment: Post-emergence action against CYPES; format: in vivo, Cyperus esculentus; details: Cyperus esculentus, 504 h; post-emergence, dosage 80 g/ha, visual assessment about 3 weeks after treatment vs untreated controls; read-out: Post-emergence action against CYPES (herbicidal action in percent)
Procedure, shortened: as §2

POLCO [27] = experiment: Post-emergence action against POLCO; format: in vivo, Polygonum convolvulus; details: Fallopia convolvulus, 504 h; post-emergence, dosage 80 g/ha
Procedure, shortened: as §2

VERPE [28] = experiment: Post-emergence action against VERPE; format: in vivo, Veronica persica; details: Veronica persica, 504 h, dosage 80 g/ha
Procedure, shortened: as §2

Row | SMILES | pest or weed control at 320 g/ha (ALOMY [1]) [%] | pest or weed control at 320 g/ha (AVEFA [2]) [%] | pest or weed control at 320 g/ha (ECHCG [3]) [%] | pest or weed control at 320 g/ha (LOLMU [4]) [%] | pest or weed control at 320 g/ha (SETVI [5]) [%] | pest or weed control at 320 g/ha (ABUTH [6]) [%] | pest or weed control at 320 g/ha (AMARE [7]) [%] | pest or weed control at 320 g/ha (MATIN [8]) [%] | pest or weed control at 320 g/ha (POLCO [9]) [%] | pest or weed control at 320 g/ha (STEME [10]) [%] | pest or weed control at 320 g/ha (VERPE [12]) [%] | pest or weed control at 80 g/ha (ALOMY [13]) [%] | pest or weed control at 80 g/ha (ECHCG [15]) [%] | pest or weed control at 80 g/ha (LOLMU [16]) [%] | pest or weed control at 80 g/ha (SETVI [17]) [%] | pest or weed control at 80 g/ha (ABUTH [18]) [%] | pest or weed control at 80 g/ha (AMARE [19]) [%] | pest or weed control at 80 g/ha (MATIN [20]) [%] | pest or weed control at 80 g/ha (PHBPU [21]) [%] | pest or weed control at 80 g/ha (STEME [22]) [%] | other results
1 | Cn1nnnc1NC(=O)c1ccc(Cl)c(C(=O)C2CC2)c1Cl [1-116] | 100 | 100 | 100 | 100 | 100 | 90 | 100 | 100 | 90 | 90 | 100 | 90 | 90 | 100 | 100 | 90 | 90 | 90 | 90 | 100 | pest or weed control at 320 g/ha (VIOTR [11]): 100%; pest or weed control at 80 g/ha (AVEFA [14]): 100%; pest or weed control at 80 g/ha (VIOTR [23]): 90%
2 | CCC(=O)c1c(Cl)ccc(C(=O)Nc2nnnn2C)c1Cl [1-115] | 100 | 100 | 100 | 100 | 90 | 100 | 100 | 100 | 80 | 100 | 100 | 90 | 90 | 90 | 90 | 90 | 90 | 100 | 90 | 100 | pest or weed control at 320 g/ha (CYPES [24]): 100%; pest or weed control at 320 g/ha (PHBPU [25]): 90%; pest or weed control at 80 g/ha (CYPES [26]): 90%; pest or weed control at 80 g/ha (POLCO [27]): 100%; pest or weed control at 80 g/ha (VIOTR [23]): 100%; pest or weed control at 80 g/ha (VERPE [28]): 100%
